Source: patent publication US20100254914A1, “NANOWORMS FOR IN VIVO TUMOR TARGETING” (THE REGENTS OF THE UNIVERSITY OF CALIFORNIA, priority 2009, published 2010)
One block for each molecule: values may come before it. Bridge positions count the residues as written; N and C are the ends. Ends that are not written are not given here.

How the values were obtained:
MDA-MB-435 cells = assay: In vitro cellular fluorescence imaging with heating, MDA-MB-435; assay type: cell-based, human; settings: 20 min at 45° C. vs 37° C., then 2 hr at 37° C.
Description: (§1) In vitro cellular fluorescence imaging. The cells were treated with 80 ug Fe/mL of Cy5.5 labeled control NWs or LyP1NWs per well for 20 min at 37° C. or 45° C. in the presence of 10% FBS and incubated for an additional 2 hr at 37° C. in the presence of 10% FBS. The cells were then rinsed three times with cell medium, fixed, stained, and imaged by fluorescence microscopy.

C8161 cells = assay: In vitro cellular fluorescence imaging with heating, C8161; assay type: cell-based; settings: 20 min at 45° C. vs 37° C., then 2 hr at 37° C.
Description: as §1

C8161 tumors = assay: In vivo temperature-induced tumor targeting of magnetic nanoworms, C8161; design: species or system mice; settings: heated relative to unheated tumors
MDA-MB-435 tumors [1] = assay: In vivo temperature-induced tumor targeting of magnetic nanoworms, MDA-MB-435; design: species or system mice; settings: 45° C. for 30 min, 24 hrs post-injection
Description: In vivo temperature-induced tumor targeting of magnetic nanoworms. Mice bearing bilateral MDA-MB-435 human carcinoma tumors were intravenously injected with Cy7-labeled LyP1NWs or NWs and one flank of the mouse (containing one of the tumors) was immediately heated at 45° C. for 30 min in a temperature-controlled water bath. At 24 hrs post-injection, the tissues were harvested and the Cy7 fluorescence in tissues were imaged using NIR fluorescence imaging system (LI-COR Odyssey).

MDA-MB-435 tumors [2] = assay: In vivo tumor homing, MDA-MB-435 xenograft; design: species or system Nude BALB/c mice; settings: for tumor uptake / targeting efficiency: 24 hrs post-injection
Description: (§2) In vivo tumor homing. MDA-MB-435 human breast carcinoma cells or HT1080 human fibrosarcoma cells (1×10^6) were injected into the mammary fat pad or subcutaneously injected into Nude BALB/c mice, respectively. Tumors were used when they reached ˜0.5 cm in size. Some 0.2 cm or 1 cm tumors were used to compare the dependence of tumor size on NW homing. Cy7-labed or non-labeled NW or NS were intravenously injected into mice (n=3˜8 for each formulation) with a dose of 1 mg Fe/kg body mass (for fluorescence studies) and 3 mg Fe/kg body mass (for magnetization studies). For real-time observation of tumor/liver uptake, animals were imaged under anesthesia in Cy7 channel using the BonSai fluorescence-imaging system (Siemens, Pa., USA) 6 hrs, 24 hrs or 48 hrs after injection. For NIR fluorescence imaging of organs, animals were sacrificed 24 hrs after the injection by cardiac perfusion with PBS under anesthesia, and organs were dissected and imaged in Cy7 channel with a NIR fluorescence scanner (LI-COR biosciences, NE, USA). All the NIR images for animals or organs were taken at the same exposure time. To quantify the amount of NW or NS homing, collected tumors were weighed, freeze-dried in gelatin capsules, and then analyzed for magnetization using SQUID. For histologic analysis, frozen sections of tumors were prepared. The sections were fixed with 4% paraformaldehyde and stained with DAPI for observation of NW or NS only. The rat anti-mouse CD-31 (1:50, BD PharMingen) and biotinylated mouse fibrin(ogen) antiserum (1:50, Nordic) were used for immunochemicostaining of tumor tissue sections. The corresponding secondary antibodies were added and incubated for 1 hour at room temperature: AlexaFluor-594 goat anti-rat or rabbit IgG (1:1,000; Molecular Probes), streptavidin Alexa Fluor 594 (1:1000; Molecular Probes). The slides were washed three times with PBS and mounted in Vectashield Mounting Medium with DAPI. At least three images from representative microscopic fields were analyzed for each tumor sample.

[3] = Hydrodynamic size by dynamic light scattering; assay type: physicochemical; settings: Table 1
Source text: The nanostructure appears as linearly aggregated IO cores with a mean hydrodynamic size (in the long dimension) of 65 nm (FIG. 1a and Table 2). When a higher molecular mass dextran (40 kDa) was used branched IO cores were obtained, with a larger average size (˜100 nm) and a broader size distribution (FIG. 5). […] NW show a slightly larger saturation magnetization value (74.2 emu/gFe vs. 61.5 emu/gFe and 53.5 emu/gFe) and a higher MR contrast (R2=116 mMFe^−1S^−1 vs R2=70 mMFe^−1S^−1 and R2=95 mMFe^−1S^−1) than NS and Feridex (FIG. 1b). […]
Blood half-life and biodistribution. To quantify the in vivo circulation times of NW or NS samples in Nude BALB/c mice (n=3-4 for each formulation), heparinized capillary tubes (Fisher) were used to draw 15 μL (for fluorescence) or 70 μl (for magnetization) of blood from the periorbital plexus at different times after intravenous injection of the NW or NS samples (1, 3, or 10 mg Fe/kg body mass). […] For Cy7-labeled NW or NS formulations, blood extracted at different times was imaged in a 96-well plate in Cy7 channel (762 nm excitation/800 nm emission) with a NIR fluorescence scanner (LI-COR biosciences, NE, USA). The images were analyzed using the ImageJ (NIH) or Osirix (Apple) programs. […] Organs and blood were immediately weighed, freeze-dried in gelatin capsules, and then analyzed for magnetization using SQUID.

HT1080 tumors = assay: In vivo tumor homing, HT1080 xenograft; design: species or system Nude BALB/c mice
Description: as §2, with “For histologic analysis, frozen sections of tumors were prepared. The sections were fixed with 4% paraformaldehyde and stained with DAPI for observation of NW or NS only. The rat anti-mouse CD-31 (1:50, BD PharMingen) and biotinylated mouse fibrin(ogen) antiserum (1:50, Nordic) were used for immunochemicostaining of tumor tissue sections. The corresponding secondary antibodies were added and incubated for 1 hour at room temperature: AlexaFluor-594 goat anti-rat or rabbit IgG (1:1,000; Molecular Probes), streptavidin Alexa Fluor 594 (1:1000; Molecular Probes). The slides were washed three times with PBS and mounted in Vectashield Mounting Medium with DAPI.” left out

p32 or gC1qR receptor = molecular target: T1, p32 or gC1qR receptor (human, UniProt Q07021 74-282); assay: fluorescence microscopy of MDA-MB-435 cells, colocalization with anti-p32 stain
T1 construct: whole, on cells; Endogenous p32 on MDA-MB-435 cells and tumors, stained with an anti-p32 antibody; also called p32 receptors
T1 sequence (looked up): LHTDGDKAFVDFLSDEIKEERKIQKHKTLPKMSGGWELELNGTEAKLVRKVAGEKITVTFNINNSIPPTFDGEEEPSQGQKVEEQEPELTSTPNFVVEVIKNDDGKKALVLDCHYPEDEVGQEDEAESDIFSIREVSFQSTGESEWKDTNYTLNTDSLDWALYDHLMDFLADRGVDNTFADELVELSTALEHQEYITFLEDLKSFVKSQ

[4] = compared with the other samples

Molecule: LyP1NWs: LyP-1 peptide attached to Cy5.5-labeled aminated NWs via PEG crosslinker, ~40 peptides per nanoworm (CGNKRTRGC; disulfide 1-9 (inferred); not fully specified; printed as Cys-Gly-Asn-Lys-Arg-Thr-Arg-Gly-Cys; also: extra Cys added for conjugation, position not given here)
binding and internalization upon heating (MDA-MB-435 cells): Significant quantities | binding and internalization upon heating (C8161 cells): lower heat-mediated internalization | homing to heated tumors (C8161 tumors): not significantly different | targeting to heated tumors (MDA-MB-435 tumors [1]): prominent relative to unheated tumors

Molecule: NW-P-C: PEGylated CREKA-conjugated NW (family; ~60 CREKA peptides in the comparison) (not fully specified; also: CREKA conjugated via PEG to nanoworms (attachment site not given here))
tumor uptake / targeting efficiency (MDA-MB-435 tumors [2]): significantly greater

Molecule: NW-P175-C: NW with 175 amines to which CREKA is conjugated through a PEG spacer, 60 peptides (not fully specified; also: CREKA conjugated through PEG spacer to nanoworm with 175 amines, 60 peptides (attachment site not given here))
Size [nm] (mean hydrodynamic size) [3]: 85.0 nm | tumor uptake / targeting efficiency (HT1080 tumors; 24 hrs post-injection): best | tumor:liver ratio (NIR fluorescence) (HT1080 tumors; [4]): significant increases | tumor uptake / targeting efficiency (MDA-MB-435 tumors [2]): significantly higher levels of uptake | tumor uptake / targeting efficiency (MDA-MB-435 tumors [2]; listed as NW-P-175-C): best | tumor:liver ratio (NIR fluorescence) (MDA-MB-435 tumors [2]; [4]): significant increases

binding result (p32 or gC1qR receptor): binds
B1: LyP-1 peptide-conjugated magnetic nanoworms (LyP1NWs) (peptide)
peptide: CGNKRTRGC
modifications: disulfide 1-9 (inferred); not fully specified; printed as Cys-Gly-Asn-Lys-Arg-Thr-Arg-Gly-Cys; also: peptide is cyclic, conjugated via PEG crosslinker to Cy5.5-labeled dextran iron oxide nanoworm, extra Cys added for conjugation, position not given here
notes: also called Lyp1-conjugated Cy5.5-labeled magnetic nanoworms; LyP1-conjugated NWs
